{"source": "patent US20140357512A1", "about": "“HISTONE DEACETYLASE (HDAC) BIOMARKERS IN MULTIPLE MYELOMA” (priority 2013, published 2014)", "tested_on": "human myeloma cell line MM.1S", "experiment": "SILAC acetylated-lysine peptide profiling, HDAC inhibitor vs DMSO (light/heavy ratio)", "type": "cell-based", "excerpt": "An embodiment of the invention comprises utilizing the SILAC method in order to quantitate changes in protein expression between two or more populations of cells. The SILAC method is a technique based on mass spectrometry that detects differences in protein abundance among samples using non-radioactive isotopic labeling. The SILAC method is known in the art, and described in detail in Ong et al., “Stable Isotope Labeling by Amino Acids in Cell Culture, SILAC, as a Simple and Accurate Approach to Expression Proteomics”, Molecular & Cellular Proteomics, vol. 1, pp. 376-386 (2002), which is incorporated herein by reference in its entirety.\nBriefly, the SILAC method involves growing two populations of cells in cell culture. The first population of cells is grown in growth media containing normal amino acids (“normal media”). The second population of cells is grown in media lacking a standard essential amino acid (such as lysine), but is then supplemented with a non-radioactive, isotopically labeled form of that essential amino acid (such as lysine labeled with ^13C atoms, rather than normal ^12C atoms), which is called “heavy media”. When the two populations of cells are each growing in the medium, they incorporate the amino acids into all of their proteins. The growth of cells maintained in the heavy media is no different from that in normal media. All peptides containing the heavy amino acids are heavier than their normal counterparts. The cells from each of the two populations of cells are lysed. The lysates from each of the two cell populations are then combined. The combined cell lysates are then analyzed by mass spectrometry. Pairs of chemically identical peptides of different stable isotope composition can be differentiated in a mass spectrometer due to their difference in mass. The ratio of peak intensities in the mass spectrum for such peptide pairs reflects the abundance ratio for the two proteins.\nThis example describes SILAC studies that were performed to compare the effects of three different HDAC inhibitors (Compound A, Compound B, and tubastatin A) to a control on a human multiple myeloma cell line. The HDAC inhibitors were also compared amongst themselves to determine differences in their effects.\nA human myeloma cell line MM.1S was grown using either ^12C (light) or ^13C (heavy) lysine containing culture medium. The “heavy” cells were treated with DMSO as the control, and the “light” cells were treated with a single HDAC inhibitor at 37° C. for 6 hours. The heavy and light cells were lysed, and the lysates were mixed in 1:1 ratio and digested with the protease trypsin. The acetylated lysine containing peptides (due to the action of the HDAC inhibitor) in the digested peptide pool were captured by a non-specific anti-acetylated lysine antibody cocktail (the antibodies identify both light and heavy acetylated peptides), and subjected to mass spectrometry analysis in order to identify thousands of individual peptides.\nThousands of peptides were identified in pairs (^12C and ^13C) due to their known mass differences. The amino acid sequence and quantitative ratio (Light/Heavy) of a given peptide in two differentially treated cell lysates were then determined and annotated with their possible protein (gene) sources.\nAs stated above, three HDAC inhibitors (Compound A, Compound B, and Tubastatin A) were used. Thus, the SILAC method was performed three times, with a different HDAC inhibitor compared to a control each time. Accordingly, there are three pairs of quantitative data in the table below, i.e., Compound A:DMSO, Compound B:DMSO, and Tubastatin A:DMSO. A cut-off of 1.30 fold of change (increase or decrease) was then used to determine “changed” or “+” in the table, and any peptides with a fold of change less than 1.3 fold were determined to be “unchanged” or “0” in the table. Those peptides that were not identified were marked as “NA” in the table. […]"}
{"smiles": "O=C(NO)c1cnc(NC2(c3cccc(F)c3)CCCCC2)nc1", "note": "[Compound B, 2-((1-(3-fluorophenyl)cyclohexyl)amino)-N-hydroxypyrimidine-5-carboxamide]", "values": [{"measurement": "light to heavy ratio (L/H ratio), log 2 scale, acetylated peptide VGDK(ac)[…] (SEQ ID NO: 773)", "setting": "10 kDa heat shock protein mitochondrial [70], gene HSPE1, drug:DMSO", "result": 0.00}, {"measurement": "light to heavy ratio (L/H ratio) of acetylated peptide IQEVLK(ac)HAR (SEQ ID NO: 264)", "setting": "39S ribosomal protein L20 mitochondrial [26], MRPL20, drug:DMSO", "result": 0.00, "unit": "log 2"}, {"measurement": "light to heavy ratio (L/H ratio) of acetylated peptide KDVHMPK(ac)HPELADK (SEQ ID NO: 353)", "setting": "40S ribosomal protein S10 [31], RPS10, drug:DMSO", "result": 0.56, "unit": "log 2"}, {"measurement": "light to heavy ratio (L/H ratio) of acetylated peptide NK(ac)[…] (SEQ ID NO: 559)", "setting": "40S ribosomal protein S17 [49], gene RPS17, RPS17L, inhibitor:DMSO", "result": 0.00, "unit": "log 2"}, {"measurement": "light to heavy ratio (L/H ratio) of acetylated peptide IDK(ac)PILK (SEQ ID NO: 506)", "setting": "60S ribosomal protein L8 [177], gene RPL8, inhibitor:DMSO", "result": 0.00, "unit": "log 2"}, {"measurement": "light to heavy ratio (L/H ratio) of acetylated peptide GPLDK(ac)WR (SEQ ID NO: 622)", "setting": "60S ribosomal protein L10-like [208], gene RPL10L, inhibitor:DMSO", "result": 0.00, "unit": "log 2"}, {"measurement": "light to heavy ratio (L/H ratio), log 2 scale, acetylated peptide YMVK(ac)SCGK (SEQ ID NO: 811)", "setting": "60S ribosomal protein L10 [78], gene SNORA70, RPL10, drug:DMSO", "result": 0.00}, {"measurement": "light to heavy ratio (L/H ratio), log 2 scale, acetylated peptide VDEVK(ac)STIK (SEQ ID NO: 805)", "setting": "60S ribosomal protein L10a [152], gene RPL10A, drug:DMSO", "result": 0.00}, {"measurement": "light to heavy ratio (L/H ratio) of acetylated peptide VITEEEK(ac)NFK (SEQ ID NO: 522)", "setting": "60S ribosomal protein L13 [174], gene RPL13, inhibitor:DMSO", "result": 0.00, "unit": "log 2"}, {"measurement": "light to heavy ratio (L/H ratio) of acetylated peptide K(ac)FAYLGR (SEQ ID NO: 614)", "setting": "60S ribosomal protein L13a [134], gene SNORD32A, RPL13A, SNORD33, SNORD34, inhibitor:DMSO", "result": 0.00, "unit": "log 2"}, {"measurement": "light to heavy ratio (L/H ratio), log 2 scale, acetylated peptide LAHEVGWK(ac)[…] (SEQ ID NO: 812)", "setting": "60S ribosomal protein L13a [148], gene SNORD32A, RPL13A, SNORD33, SNORD34, drug:DMSO", "result": 0.00}, {"measurement": "light to heavy ratio (L/H ratio) of acetylated peptide GHK(ac)FHHTIGGSR (SEQ ID NO: 519)", "setting": "60S ribosomal protein L15 [179], gene RPL15, inhibitor:DMSO", "result": 0.00, "unit": "log 2"}, {"measurement": "light to heavy ratio (L/H ratio), log 2 scale, acetylated peptide SFVK(ac)[…] (SEQ ID NO: 770)", "setting": "60S ribosomal protein L27 [73], gene RPL27, drug:DMSO", "result": 0.00}, {"measurement": "light to heavy ratio (L/H ratio), log 2 scale, acetylated peptide YSVDIPLDK(ac)TVVNK (SEQ ID NO: 807)", "setting": "60S ribosomal protein L27 [93], gene RPL27, drug:DMSO", "result": 0.00}, {"measurement": "light to heavy ratio (L/H ratio) of acetylated peptide NCSSFLIK(ac)R (SEQ ID NO: 558)", "setting": "60S ribosomal protein L28 [19], gene RPL28, inhibitor:DMSO", "result": 0.00, "unit": "log 2"}, {"measurement": "light to heavy ratio (L/H ratio) of acetylated peptide IHGVGFK(ac)K (SEQ ID NO: 542)", "setting": "60S ribosomal protein L31 [39], gene RPL31, inhibitor:DMSO", "result": 0.00, "unit": "log 2"}, {"measurement": "light to heavy ratio (L/H ratio), log 2 scale, acetylated peptide LNK(ac)AVWAK (SEQ ID NO: 808)", "setting": "60S ribosomal protein L31 [70], gene RPL31, drug:DMSO", "result": 0.00}, {"measurement": "light to heavy ratio (L/H ratio) of acetylated peptide LWSK(ac)AIFAGYK (SEQ ID NO: 538)", "setting": "60S ribosomal protein L35a [8], gene RPL35A, inhibitor:DMSO", "result": 0.00, "unit": "log 2"}, {"measurement": "light to heavy ratio (L/H ratio) of acetylated peptide KIEISQHAK(ac)YTCSFCGK (SEQ ID NO: 351)", "setting": "60S ribosomal protein L37a [36], RPL37A, drug:DMSO", "result": 0.41, "unit": "log 2"}, {"measurement": "light to heavy ratio (L/H ratio) of acetylated peptide VMEHFIK(ac)LYK (SEQ ID NO: 276)", "setting": "78 kDa glucose-regulated protein [268], HSPA5, drug:DMSO", "result": 0.00, "unit": "log 2"}, {"measurement": "light to heavy ratio (L/H ratio) of acetylated peptide AK(ac)[…] (SEQ ID NO: 266)", "setting": "78 kDa glucose-regulated protein [326], HSPA5, drug:DMSO", "result": 0.00, "unit": "log 2"}, {"measurement": "light to heavy ratio (L/H ratio) of acetylated peptide FK(ac)[…] (SEQ ID NO: 333)", "setting": "116 kDa U5 small nuclear ribonucleoprotein component [790], EFTUD2, drug:DMSO", "result": "−0.99", "unit": "log 2"}, {"measurement": "L/H ratio of acetylated peptide", "setting": "(ac)AQLGK(ac)LLK (SEQ ID NO: 421), NEDD8-activating enzyme E1 regulatory subunit [6], NAE1", "result": 0.70, "unit": "log 2"}, {"measurement": "L/H ratio of acetylated peptide", "setting": "(ac)MEDYTK(ac)IEK (SEQ ID NO: 374), Isoform 2 of Cyclin-dependent kinase 1 [6], CDK1", "result": "−0.51", "unit": "log 2"}, {"measurement": "light to heavy ratio (L/H ratio) of acetylated peptide, log 2 scale", "setting": "(ac)SIGVPIK(ac)[…] (SEQ ID NO: 224), Small nuclear ribonucleoprotein Sm D3 [8], SNRPD3", "result": 0.00}, {"measurement": "L/H ratio of acetylated peptide", "setting": "(ac)SNMEK(ac)HLFNLK (SEQ ID NO: 376), Charged multivesicular body protein 1b [6], CHMP1B", "result": 0.85, "unit": "log 2"}, {"measurement": "L/H ratio of acetylated peptide", "setting": "(ac)SSNECFK(ac)CGR (SEQ ID NO: 379), Isoform 1 of Cellular nucleic acid-binding protein [8], CNBP", "result": "−0.82", "unit": "log 2"}, {"measurement": "light to heavy ratio (L/H ratio) of acetylated peptide, log 2 scale", "setting": "(ac)SVFGK(ac)LFGAGGGK (SEQ ID NO: 143), Charged multivesicular body protein 4b [6], CHMP4B", "result": 0.00}, {"measurement": "L/H ratio of acetylated peptide", "setting": "(ac)[…](ac)DLK (SEQ ID NO: 437), Isoform 2 of Prothymosin alpha [15], PTMA, MIR1244-3, MIR1244-2, MIR1244-1", "result": 0.61, "unit": "log 2"}, {"measurement": "L/H ratio of acetylated peptide", "setting": "(ac)[…](ac)SAR (SEQ ID NO: 464), Voltage-dependent anion-selective channel protein 1 [12], VDAC1", "result": "−0.78", "unit": "log 2"}, {"measurement": "L/H ratio of acetylated peptide", "setting": "ACK(ac)LAIR (SEQ ID NO: 463), Transitional endoplasmic reticulum ATPase [696], VCP", "result": "−0.58", "unit": "log 2"}, {"measurement": "L/H ratio of acetylated peptide NLQK(ac)EVIHR (SEQ ID NO: 125)", "setting": "ACOX1 [504], log 2 scale, drug vs DMSO", "result": 0.00}]}
